Results reported in ChEMBL document CHEMBL3885861, “Open TG-GATES”.

Organism: Rattus norvegicus
Assay: Open TG-GATES - Regimen: Single
Type: toxicity, organism-based, Sprague-Dawley
Set-up: regimen Single, gender Male, age 6 weeks
Settings: in vivo, po, 450 mg/kg, route gavage, dose level Low; for APTT / Bas / Eos / Fbg / Hb / Ht / Lym / MCH / MCHC / MCV / Mono / Neu / Plat / RBC / Ret / WBC: tissue Blood; for KIDNEY_L / KIDNEY_R / KIDNEY_TOTAL: tissue Kidney; for LIVER: tissue Liver; for ALP / ALT / AST / BUN / CRE / Ca / Cl / DBIL / GLC / IP / K / LDH / Na / PL / RALB / TBIL / TC / TG / TP / gamma-GTP: tissue Plasma

## CC(=O)Oc1ccccc1C(=O)O [ASPIRIN]
3 h
  TERMINAL_BW: 217.1 g
  APTT: 19.8 s
  Bas: 0%
  Eos: 1%
  Fbg: 230.2 mg/dL
  Hb: 13.8 g/dL
  Ht: 38.5%
  Lym: 70%
  MCH: 21.2 pg
  MCHC: 36%
  MCV: 59 fL
  Mono: 3.4%
  Neu: 24.4%
  Plat: 136.3 x10_4/uL
  RBC: 653 x10_4/ul
  Ret: 7.3%
  WBC: 89.4 x10_2/uL
  KIDNEY_L: 0.9 g
  KIDNEY_R: 0.9 g
  KIDNEY_TOTAL: 1.8 g
  LIVER: 8.7 g
  ALP: 1084 IU/L
  ALT: 45 IU/L
  AST: 85.8 IU/L
  BUN: 14.4 mg/dL
  CRE: 0.4 mg/dL
  Ca: 9 mg/dL
  Cl: 103.6 meq/L
  DBIL: 0.06 mg/dL
  GLC: 189.2 mg/dL
  IP: 8.7 mg/dL
  K: 3.3 meq/L
  LDH: 228.8 IU/L
  Na: 141.2 meq/L
  PL: 96.6 mg/dL
  RALB: 3.6 g/dL
  TBIL: 0.1 mg/dL
  TC: 60.4 mg/dL
  TG: 20.4 mg/dL
  TP: 5.7 g/dL
  gamma-GTP: 1.2 IU/L
6 h
  TERMINAL_BW: 218.6 g
  APTT: 21.5 s
  Bas: 0%
  Eos: 0.8%
  Fbg: 230.4 mg/dL
  Hb: 13.9 g/dL
  Ht: 38.2%
  Lym: 71%
  MCH: 22.2 pg
  MCHC: 36.3%
  MCV: 61.1 fL
  Mono: 3.2%
  Neu: 24%
  Plat: 124.8 x10_4/uL
  RBC: 626.8 x10_4/ul
  Ret: 8.1%
  WBC: 90.8 x10_2/uL
  KIDNEY_L: 1 g
  KIDNEY_R: 1 g
  KIDNEY_TOTAL: 2 g
  LIVER: 9 g
  ALP: 834.4 IU/L
  ALT: 34.8 IU/L
  AST: 72.6 IU/L
  BUN: 14.6 mg/dL
  CRE: 0.4 mg/dL
  Ca: 9.2 mg/dL
  Cl: 105 meq/L
  DBIL: 0.056 mg/dL
  GLC: 204 mg/dL
  IP: 7.7 mg/dL
  K: 3.4 meq/L
  LDH: 221.2 IU/L
  Na: 141 meq/L
  PL: 113.2 mg/dL
  RALB: 3.5 g/dL
  TBIL: 0.1 mg/dL
  TC: 67.8 mg/dL
  TG: 32.8 mg/dL
  TP: 5.6 g/dL
  gamma-GTP: 1 IU/L
9 h
  TERMINAL_BW: 215.1 g
  APTT: 21.4 s
  Bas: 0%
  Eos: 0.8%
  Fbg: 220.4 mg/dL
  Hb: 13.6 g/dL
  Ht: 38.2%
  Lym: 68.2%
  MCH: 21.9 pg
  MCHC: 35.5%
  MCV: 61.8 fL
  Mono: 2.2%
  Neu: 28%
  Plat: 124.6 x10_4/uL
  RBC: 619.4 x10_4/ul
  Ret: 8.4%
  WBC: 94.9 x10_2/uL
  KIDNEY_L: 1 g
  KIDNEY_R: 1 g
  KIDNEY_TOTAL: 1.9 g
  LIVER: 7.9 g
  ALP: 828 IU/L
  ALT: 34.4 IU/L
  AST: 77.4 IU/L
  BUN: 13.2 mg/dL
  CRE: 0.4 mg/dL
  Ca: 9.1 mg/dL
  Cl: 106.8 meq/L
  DBIL: 0.05 mg/dL
  GLC: 201.2 mg/dL
  IP: 8.3 mg/dL
  K: 3.4 meq/L
  LDH: 210.2 IU/L
  Na: 141.2 meq/L
  PL: 93.4 mg/dL
  RALB: 3.3 g/dL
  TBIL: 0.096 mg/dL
  TC: 55.2 mg/dL
  TG: 12.6 mg/dL
  TP: 5.4 g/dL
  gamma-GTP: 0.8 IU/L
24 h
  TERMINAL_BW: 217.9 g
  APTT: 24.7 s
  Bas: 0.4%
  Eos: 1%
  Fbg: 222 mg/dL
  Hb: 14.4 g/dL
  Ht: 38.6%
  Lym: 79.8%
  MCH: 22.7 pg
  MCHC: 37.2%
  MCV: 60.9 fL
  Mono: 2.2%
  Neu: 16.2%
  Plat: 129 x10_4/uL
  RBC: 633.6 x10_4/ul
  Ret: 7.2%
  WBC: 106.4 x10_2/uL
  KIDNEY_L: 1 g
  KIDNEY_R: 1 g
  KIDNEY_TOTAL: 1.9 g
  LIVER: 9.2 g
  ALP: 905.4 IU/L
  ALT: 43.4 IU/L
  AST: 82.4 IU/L
  BUN: 15.8 mg/dL
  CRE: 0.5 mg/dL
  Ca: 10.4 mg/dL
  Cl: 104.6 meq/L
  DBIL: 0.048 mg/dL
  GLC: 196.4 mg/dL
  IP: 8.6 mg/dL
  K: 3.7 meq/L
  LDH: 199.2 IU/L
  Na: 141 meq/L
  PL: 107 mg/dL
  RALB: 3.5 g/dL
  TBIL: 0.092 mg/dL
  TC: 56 mg/dL
  TG: 39.6 mg/dL
  TP: 5.6 g/dL
  gamma-GTP: 1 IU/L
